Measurements: paper PMC10179080, “In Vivo and In Vitro Characterization of Close Analogs of Compound KA-11, a New Antiseizure Drug Candidate” (International Journal of Molecular Sciences, 2023)

Experiments:
[1] = system: PTZ-induced clonic seizures in mice; assay: scPTZ-induced convulsions; type: in vivo; details: i.p.
Description: (§1) The experiments were conducted on adult male albino Swiss mice weighing 22–26 g. The animals were kept in colony cages under standardized laboratory conditions: natural light–dark cycle 12/12 h, temperature 20–24 °C, air humidity 45–65% and free access to tap water and food (chow pellets). After 7 days of adaptation to laboratory conditions, the animals were randomly assigned to experimental groups consisting of 8 mice. The experimental procedures described herein were approved by the Local Ethics Committee in Lublin, Poland (approval numbers: 71/2020 and 13/2021), and were conducted in accordance with EU Directive 2010/63/EU for animal experiments. All efforts were made to minimize animal suffering and to use only the number of animals necessary to produce reliable scientific data according to the 3Rs rule.
All substances (except PTZ and tetracaine hydrochloride dissolved in water for injections) were suspended in a 1% solution of Tween 80 (Sigma-Aldrich, Saint Louis, MO, USA) in water for injections (Baxter, Warszawa, Poland) or 0.9% NaCl. All drugs were injected intraperitoneally (i.p.) 30 min before all seizure models with 1 mL syringes as a single injection, in a volume of 10 mL/kg. The pretreatment time (30 min) before testing for KA-228 and KA-232 was chosen based on the time to peak of maximum anticonvulsant activity of KA-11 from our previous studies.
The PTZ-induced clonic seizures in mice were determined after sc administration of PTZ at a dose of 100 mg/kg. The animals were administered with increasing doses of KA-228 and KA-232, and the anticonvulsant activity of each drug was evaluated as the ED50 value. This experimental procedure has been described in detail in our previous studies.
The ED50 or TD50 values for tested substances in the acute animal models of seizures were calculated using the computer log-probit analysis. Subsequently, the ED50 and TD50 values (±SEM) were statistically analyzed using one-way analysis of variance (ANOVA) followed by the post hoc Dunnett’s test for multiple comparisons. Differences among values were considered statistically significant if p < 0.05. GraphPad Prism version 8 for Windows (GraphPad Software, San Diego, CA, USA) was used as a statistical software program. The results obtained from the acute ivPTZ test and grip strength test were evaluated by a Student’s t test. Fisher’s exact probability test was used to analyze protection from tonic forelimb and hindlimb extension in the ivPTZ test.

[2] = Chimney test; details: male, albino Swiss, mouse, in vivo, ip, mice
Description: as §1
The chimney test of Boissier et al. was used to quantify the acute adverse-effect potential of KA-228 and KA-232 on motor performance in mice. […]
The ED50 or TD50 values for tested substances in the acute animal models of seizures were calculated using the computer log-probit analysis. Subsequently, the ED50 and TD50 values (±SEM) were statistically analyzed using one-way analysis of variance (ANOVA) followed by the post hoc Dunnett’s test for multiple comparisons. […] The results obtained from the acute ivPTZ test and grip strength test were evaluated by a Student’s t test. […]

[3] = system: Na^+ channel (site 2); assay: Radioligand binding, Na+ channel (site 2); set-up: species or system rat; details: 10 µM
Description: (§2) Dysfunction of both sodium and calcium ion channels is known to be one of the crucial reasons behind the pathogenesis of seizures. Consequently, these ion channels are molecular targets for several clinically important ASDs such as lacosamide, lamotrigine, carbamazepine, oxcarbazepine and compounds currently under preclinical and clinical studies. Thus, for KA-228 and KA-232, we tested herein their binding profile toward the aforementioned ion channels at concentrations of 10 and 100 µM (Table 3). […] Apart from in vitro studies focused on explaining the mechanism of action, KA-232 was additionally tested for its interaction with the potassium channel (hERG) which is recognized as one of the most important ‘off-targets’ responsible for harmful arrhythmogenic activity. Thus, the interaction of potential drug candidates with hERG must be excluded at an early stage of development.
(§3) Binding studies were carried out commercially in Eurofins Laboratories (Poitiers, France or New Taipei City, Taiwan).

[4] = system: Calcium Cav1.2 channels (diltiazem site, antagonist radioligand); assay: Radioligand binding, Cav1.2 diltiazem site; set-up: species or system rat
Description: as §2, §3

[5] = system: Calcium Cav1.2 channel (verapamil site, antagonist radioligand); assay: Radioligand binding, Cav1.2 verapamil site; set-up: species or system rat; details: 10 µM
Description: as §2, §3

[6] = molecular target: T1, Calcium Cav2.2 channel (antagonist radioligand) (Rattus norvegicus, UniProt Q02294); assay: Radioligand binding, Cav2.2 channel
T1 construct: rat cerebral cortex; tissue Eurofins Laboratories; host or cells: rat cerebral cortex
Description: as §2, §3

[7] = Metabolic stability in human liver microsomes; type: in vitro ADME; details: pH 7.4, 120 min, TRIS buffer pH 7.4, 37 °C, read-out: Metabolic stability (% remaining after incubation with HLMs)
Description: The assays and protocols used for evaluating the KA-232 ADME-Tox parameters were similar to those described previously for compound KA-11 [6].
Figure S3 The MetaSite 6.0.1. software prediction of the most probably sites of KA-232
metabolism. The darker red color - the higher probability to be involved in the metabolism
pathway. The blue circle marked the site of compound with the highest probability of metabolic
Figure S4 UPLC spectra after 120 min incubation of compound KA-232 with human liver
microsomes in TRIS buffer pH=7.4 at 37 °C.
reaction mixture. Three metabolites M1, M2 and M3 were identified as well as the products
(m/z= 382.18, m/z=445.23) of compound degradation in physiological buffers (see also Figure […]

[8] = Stability in PBS buffer during PAMPA incubation; type: physicochemical; details: 5 h incubation in PAMPA plate, PBS pH 7.4, RT

T1 sequence (Q02294 whole entry): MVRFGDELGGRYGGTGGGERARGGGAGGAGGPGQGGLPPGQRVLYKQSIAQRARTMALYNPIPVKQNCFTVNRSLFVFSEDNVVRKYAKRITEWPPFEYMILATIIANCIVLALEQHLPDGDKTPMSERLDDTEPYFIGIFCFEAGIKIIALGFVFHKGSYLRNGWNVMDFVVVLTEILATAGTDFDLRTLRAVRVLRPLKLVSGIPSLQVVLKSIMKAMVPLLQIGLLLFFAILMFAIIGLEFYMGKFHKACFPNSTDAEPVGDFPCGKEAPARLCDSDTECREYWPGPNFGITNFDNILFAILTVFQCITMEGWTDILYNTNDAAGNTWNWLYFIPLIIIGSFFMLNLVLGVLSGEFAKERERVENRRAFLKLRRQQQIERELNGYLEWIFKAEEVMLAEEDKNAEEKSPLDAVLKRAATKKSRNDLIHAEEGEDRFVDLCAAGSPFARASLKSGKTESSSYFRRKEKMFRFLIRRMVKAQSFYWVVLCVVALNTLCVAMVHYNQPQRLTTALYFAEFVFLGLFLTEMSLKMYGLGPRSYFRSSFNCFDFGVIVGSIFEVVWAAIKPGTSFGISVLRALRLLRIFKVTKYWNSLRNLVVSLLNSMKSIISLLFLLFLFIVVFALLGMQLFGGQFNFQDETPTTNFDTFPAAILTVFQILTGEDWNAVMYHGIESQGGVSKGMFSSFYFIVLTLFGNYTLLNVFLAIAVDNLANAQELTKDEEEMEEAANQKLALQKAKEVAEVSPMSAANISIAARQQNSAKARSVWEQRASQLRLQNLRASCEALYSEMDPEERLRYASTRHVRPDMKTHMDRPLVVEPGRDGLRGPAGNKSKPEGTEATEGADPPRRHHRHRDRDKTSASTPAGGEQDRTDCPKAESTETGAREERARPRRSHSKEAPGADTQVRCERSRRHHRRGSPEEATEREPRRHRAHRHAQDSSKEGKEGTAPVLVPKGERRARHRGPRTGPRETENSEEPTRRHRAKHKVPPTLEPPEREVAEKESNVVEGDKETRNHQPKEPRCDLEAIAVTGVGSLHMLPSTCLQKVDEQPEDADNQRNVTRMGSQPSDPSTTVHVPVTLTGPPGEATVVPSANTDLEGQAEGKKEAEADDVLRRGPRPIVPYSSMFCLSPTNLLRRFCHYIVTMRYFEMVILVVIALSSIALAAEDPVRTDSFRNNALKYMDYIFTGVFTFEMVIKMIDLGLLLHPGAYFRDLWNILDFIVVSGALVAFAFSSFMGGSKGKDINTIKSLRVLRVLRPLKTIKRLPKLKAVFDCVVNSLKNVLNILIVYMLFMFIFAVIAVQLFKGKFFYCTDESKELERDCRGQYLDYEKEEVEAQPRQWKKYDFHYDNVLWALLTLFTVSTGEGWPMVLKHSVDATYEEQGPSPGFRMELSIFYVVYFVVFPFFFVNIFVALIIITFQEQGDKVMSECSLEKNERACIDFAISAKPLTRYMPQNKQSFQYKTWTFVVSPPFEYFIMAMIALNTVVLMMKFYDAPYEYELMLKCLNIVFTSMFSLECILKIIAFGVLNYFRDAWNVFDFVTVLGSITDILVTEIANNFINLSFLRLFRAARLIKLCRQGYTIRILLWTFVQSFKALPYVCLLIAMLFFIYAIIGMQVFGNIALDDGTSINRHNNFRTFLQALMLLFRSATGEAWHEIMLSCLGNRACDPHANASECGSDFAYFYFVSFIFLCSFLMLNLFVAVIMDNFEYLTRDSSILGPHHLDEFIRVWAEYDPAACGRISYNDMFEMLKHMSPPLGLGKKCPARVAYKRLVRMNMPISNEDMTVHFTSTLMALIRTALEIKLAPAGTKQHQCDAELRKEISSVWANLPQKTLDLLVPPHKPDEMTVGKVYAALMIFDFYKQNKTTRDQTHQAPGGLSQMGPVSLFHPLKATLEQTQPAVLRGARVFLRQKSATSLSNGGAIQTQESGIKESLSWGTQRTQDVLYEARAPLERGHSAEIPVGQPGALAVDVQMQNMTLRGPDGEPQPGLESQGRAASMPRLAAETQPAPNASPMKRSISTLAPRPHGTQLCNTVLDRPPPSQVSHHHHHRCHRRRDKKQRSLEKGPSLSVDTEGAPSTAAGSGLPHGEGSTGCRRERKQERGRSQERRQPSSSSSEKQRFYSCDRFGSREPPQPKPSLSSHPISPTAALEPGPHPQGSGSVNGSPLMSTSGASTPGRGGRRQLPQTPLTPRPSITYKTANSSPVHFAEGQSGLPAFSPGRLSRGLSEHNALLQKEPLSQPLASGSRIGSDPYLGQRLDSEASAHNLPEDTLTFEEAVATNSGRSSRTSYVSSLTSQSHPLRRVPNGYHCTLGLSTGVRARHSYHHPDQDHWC

SMILES: CC(C(=O)N1CCN(c2cccc(C(F)(F)F)c2)CC1)N1C(=O)CC(N(C)C)C1=O.Cl (stereo not drawn) [KA-232, 3-(Dimethylamino)-1-(1-oxo-1-(4-(3-(trifluoromethyl)phenyl)piperazin-1-yl)propan-2-yl)pyrrolidine-2,5-dione hydrochloride]
- ED50 ([1]; Mus musculus, scPTZ 100 mg/kg, 30 min before test, read-out: ED50 PTZ ± SD): 59.3 ± 78.2 mg/kg
- TI (TD50/ED50), PTZ ([1]; scPTZ): 2.75
- TD50 at 30 min [2]: 163 ± 31.2 mg/kg
- % Inhibition of Control Specific Binding [3]: 3.8%
- % Inhibition of Control Specific Binding ([4]; 10 µM): −1.8%
- % Inhibition of Control Specific Binding ([4]; 100 µM): 17.5%
- % Inhibition of Control Specific Binding [5]: −2.8 (10) %
- % Inhibition of Control Specific Binding ([6]; 10 µM): did not interact
- inhibition at 10 µM ([6]; read-out: % Inhibition of Control Specific Binding): 10.6%
- remaining at 2 h [7]: ~73%
- stability in physiological buffer [8]: some products of KA-232 degradation at the pyrrolidine-2,5-dione moiety were observed
- melting point: 141.4 to 143.5 °C
